Test results as given in US8691528B2, “Cell penetrating peptide” (Mitsubishi Tanabe Pharma Corporation, priority 2005, dated 2014).
Entries after “also recorded” stand apart in the source; their conditions may differ.

Experiments:
Type in all cases: cell-based
CHO cells [1] = experiment: Test of translocation of fluorescence-labeled peptides into CHO cells (FACS and confocal microscopic analysis); settings: FACS; between 25 μM and 6.15 μM
CHO cells [2] = experiment: as above
Jurkat cells = experiment: Confocal microscopic analysis of intracellular translocation of synthetic peptides in Jurkat cells
Method: (§1) Three kinds of cells were used for incorporating the peptides: CHO cells (ATCC NO. CCL-61), HeLa cells, and Jurkat cells. 10^4 CHO cells and HeLa cells and 10^5 Jurkat cells were separately inoculated to a 96-well plate, and cultured for 2 or 3 days. Subsequently, when the cells became confluent, each peptide solution was added to each type of cell, and the cells were incubated for 1 hour. After each type of cell was washed with PBS three times, 100 μL of 0.25% trypsin-1 mM EDTA solution was added, and trypsinization was performed at room temperature for 5 minutes. After 400 μL of PBS (10% FCS) was added to neutralize the trypsin, the cells were washed with 1 mL of HBSS (Hanks' Balanced Salt Solution/produced by Invitrogen) three times. After the washing, the cells were suspended in 50 μL of HBSS and analyzed using a confocal microscope. Measurements and analysis were performed using a confocal differential interference laser microscope system (Bio-Rad, Radience2100/Green He-Ne, 488 nm, microscope: Nikon, ECLIPSE E600).
In Jurkat cells as well, intracellular translocation experiments of synthetic peptides of modified PTD sequences were performed by confocal microscopic analysis.

HeLa cells = experiment: Confocal microscopic analysis of intracellular translocation of synthetic peptides in HeLa cells; settings: confocal microscopic analysis
Method: as §1
In HeLa cells as with CHO cells, intracellular translocation experiments of synthetic peptides of modified PTD sequences were performed by confocal microscopic analysis.

KSH1-7: KSH1 with threonine substituted with tryptophan to form a tryptophan cluster (KLWMRWYSPWTRRYG; Designed peptide to act as PTD(Protein Transduction Domain))
intracellular translocation compared with KSH1 (CHO cells [1]): not less than 3 times | intracellular translocation compared with KSH1 (in words) (CHO cells [2]; 50 μM, 25 μM, 12.5 μM and 6.5 μM): accentuated remarkably; also recorded: clearly accentuated intracellular translocation | intracellular translocation compared with KSH1 (CHO cells [2]; FACS, 12.5 μM): not less than 10 times | intracellular translocation in Jurkat cells as compared to that of SEQ ID NO:37 (Jurkat cells): better intracellular translocation | intracellular translocation in HeLa cells compared with CHO cells (HeLa cells): lower
